From patent US11957687B2 (REGENERON PHARMACEUTICALS, INC., priority 2019, dated 2024)

Biological target: HSD17B13 (Homo sapiens (Human), UniProt Q7Z5P4)
Experiment: HSD17B13 enzymatic inhibition assay (150 nM or 50 nM HSD17B13)
Type: biochemical
Settings: 50 nM HSD17B13; read-out: Inhibition of 50 nM of HSD17B13 IC50

HSD17B13, sequence (Q7Z5P4 other isoform, or with tags, fused parts or gaps): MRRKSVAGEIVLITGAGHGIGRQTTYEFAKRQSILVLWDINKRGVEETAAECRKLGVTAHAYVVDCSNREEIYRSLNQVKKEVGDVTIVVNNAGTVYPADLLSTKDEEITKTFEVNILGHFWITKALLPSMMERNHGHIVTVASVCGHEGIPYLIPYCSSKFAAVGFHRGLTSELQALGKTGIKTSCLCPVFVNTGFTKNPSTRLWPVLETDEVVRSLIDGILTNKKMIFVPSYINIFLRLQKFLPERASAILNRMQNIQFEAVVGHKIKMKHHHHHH

IC50 [nM] | Structure (SMILES)
4260 | Cc1ccc2c(c1)N(C)CCC2NC(=O)c1ccc(C(F)(F)F)[nH]c1=O (stereo not drawn) [Compound 338, N-(1,7-dimethyl-1,2,3,4-tetrahydroquinolin-4-yl)-2-oxo-6-(trifluoromethyl)-1,2-dihydropyridine-3-carboxamide]
2820 | Cc1ccc2c(c1)C(NC(=O)c1ccc(C(F)(F)F)[nH]c1=O)CCN2 (stereo not drawn) [Compound 339, N-(6-methyl-1,2,3,4-tetrahydroquinolin-4-yl)-2-oxo-6-(trifluoromethyl)-1,2-dihydropyridine-3-carboxamide]
190 | CCCC1=Cc2ccc(C)cc2C1NC(=O)c1ccc(C(F)(F)F)[nH]c1=O (stereo not drawn) [Compound 340, N-(6-methyl-2-propyl-1H-inden-1-yl)-2-oxo-6-(trifluoromethyl)-1,2-dihydropyridine-3-carboxamide]
100 | CCCC1=C(NC(=O)c2ccc(C(F)(F)F)[nH]c2=O)c2ccc(C)cc2C1O (stereo not drawn) [Compound 342, N-(1-hydroxy-6-methyl-2-propyl-1H-inden-3-yl)-2-oxo-6-(trifluoromethyl)-1,2-dihydropyridine-3-carboxamide]
6260 | CC1=C(NC(=O)c2ccc(C(F)(F)F)[nH]c2=O)c2ccccc2C1=O [Compound 343, N-(2-methyl-1-oxo-1H-inden-3-yl)-2-oxo-6-(trifluoromethyl)-1,2-dihydropyridine-3-carboxamide]
2250 | CCCC1=C(NC(=O)c2ccc(C(F)(F)F)[nH]c2=O)c2ccc(C)cc2C1=O [Compound 344, N-(6-methyl-1-oxo-2-propyl-1H-inden-3-yl)-2-oxo-6-(trifluoromethyl)-1,2-dihydropyridine-3-carboxamide]
8970 | O=C(NC1CCCc2c(CO)cccc21)c1ccc(C(F)(F)F)[nH]c1=O (stereo not drawn) [Compound 345, N-(5-(hydroxymethyl)-1,2,3,4-tetrahydronaphthalen-1-yl)-2-oxo-6-(trifluoromethyl)-1,2-dihydropyridine-3-carboxamide]
7030 | O=C(NC1CCCc2c(CCO)cccc21)c1ccc(C(F)(F)F)[nH]c1=O (stereo not drawn) [Compound 346, N-(5-(2-hydroxyethyl)-1,2,3,4-tetrahydronaphthalen-1-yl)-2-oxo-6-(trifluoromethyl)-1,2-dihydropyridine-3-carboxamide]
> 10000 | Cc1cccc2c1CCCC2NC(=O)c1ccc(C(F)(F)F)[nH]c1=O (stereo not drawn) [Compound 347]
9840 | O=C(NC1CCCc2c(-c3ccccc3)cccc21)c1ccc(C(F)(F)F)[nH]c1=O (stereo not drawn) [Compound 348, 2-oxo-N-(5-phenyl-1,2,3,4-tetrahydronaphthalen-1-yl)-6-(trifluoromethyl)-1,2-dihydropyridine-3-carboxamide]
1410 | COc1ccc2c(c1)CCC(OC)C2NC(=O)c1ccc(C(F)(F)F)[nH]c1=O (stereo not drawn) [Compound 349, N-(2,6-dimethoxy-1,2,3,4-tetrahydronaphthalen-1-yl)-2-oxo-6-(trifluoromethyl)-1,2-dihydropyridine-3-carboxamide]
360 | COC1CCc2cc(C)ccc2C1NC(=O)c1ccc(C(F)(F)F)[nH]c1=O (stereo not drawn) [Compound 350, N-(2-methoxy-6-methyl-1,2,3,4-tetrahydronaphthalen-1-yl)-2-oxo-6-(trifluoromethyl)-1,2-dihydropyridine-3-carboxamide]
2160 | Cc1ccc2c(c1)OC(C)C2NC(=O)c1ccc(C(F)(F)F)[nH]c1=O (stereo not drawn) [Compound 356, N-(2,6-dimethyl-2,3-dihydrobenzofuran-3-yl)-2-oxo-6-(trifluoromethyl)-1,2-dihydropyridine-3-carboxamide]
1180 | CCC[C@H]1Oc2cc(C)ccc2[C@H]1NC(=O)c1ccc(C(F)(F)F)[nH]c1=O [Compound 357, N-((2R,3R)-6-methyl-2-propyl-2,3-dihydrobenzofuran-3-yl)-2-oxo-6-(trifluoromethyl)-1,2-dihydropyridine-3-carboxamide]
2150 | CC[C@@H]1Oc2cc(C)ccc2[C@@H]1NC(=O)c1ccc(C(F)(F)F)[nH]c1=O [Compound 359, N-((2S,3S)-2-ethyl-6-methyl-2,3-dihydrobenzofuran-3-yl)-2-oxo-6-(trifluoromethyl)-1,2-dihydropyridine-3-carboxamide]
2470 | Cc1ccc2c(c1)C(NC(=O)c1ccc(C(F)(F)F)[nH]c1=O)C(C)O2 (stereo not drawn) [Compound 363, N-(2,5-dimethyl-2,3-dihydrobenzofuran-3-yl)-2-oxo-6-(trifluoromethyl)-1,2-dihydropyridine-3-carboxamide]
600 | CC[C@@H]1C[C@@H](NC(=O)c2ccc(C(F)(F)F)[nH]c2=O)c2cc(C)ccc2N1 [Compound 364, N-((2R,4R)-2-ethyl-6-methyl-1,2,3,4-tetrahydroquinolin-4-yl)-2-oxo-6-(trifluoromethyl)-1,2-dihydropyridine-3-carboxamide]
160 | CC[C@H]1C[C@@H](NC(=O)c2ccc(C(F)(F)F)[nH]c2=O)c2cc(C)ccc2N1 [Compound 365, N-((2S,4R)-2-ethyl-6-methyl-1,2,3,4-tetrahydroquinolin-4-yl)-2-oxo-6-(trifluoromethyl)-1,2-dihydropyridine-3-carboxamide]

IC50 [nM] | Structure (SMILES)
380 | CC[C@@H]1C[C@@H](NC(=O)c2ccc(C(F)(F)F)[nH]c2=O)c2ccc(C)cc2N1 [Compound 367, N-((2R,4R)-2-ethyl-7-methyl-1,2,3,4-tetrahydroquinolin-4-yl)-2-oxo-6-(trifluoromethyl)-1,2-dihydropyridine-3-carboxamide]
1420 | Cc1ccc2c(c1)[C@H](NC(=O)c1ccc(C(F)(F)F)[nH]c1=O)C[C@H](C)N2 [Compound 371, N-((2S,4R)-2,6-dimethyl-1,2,3,4-tetrahydroquinolin-4-yl)-2-oxo-6-(trifluoromethyl)-1,2-dihydropyridine-3-carboxamide]
1730 | CCN1Cc2cc(C)ccc2C(NC(=O)c2ccc(C(F)(F)F)[nH]c2=O)C1=O (stereo not drawn) [Compound 373, N-(2-ethyl-7-methyl-3-oxo-1,2,3,4-tetrahydroisoquinolin-4-yl)-2-oxo-6-(trifluoromethyl)-1,2-dihydropyridine-3-carboxamide]
2490 | Cc1ccc2c(c1)CNC(=O)C2NC(=O)c1ccc(C(F)(F)F)[nH]c1=O (stereo not drawn) [Compound 374, N-(7-methyl-3-oxo-1,2,3,4-tetrahydroisoquinolin-4-yl)-2-oxo-6-(trifluoromethyl)-1,2-dihydropyridine-3-carboxamide]
2400 | Cc1ccc2c(c1)CN(C)C(=O)C2NC(=O)c1ccc(C(F)(F)F)[nH]c1=O (stereo not drawn) [Compound 375, N-(2,7-dimethyl-3-oxo-1,2,3,4-tetrahydroisoquinolin-4-yl)-2-oxo-6-(trifluoromethyl)-1,2-dihydropyridine-3-carboxamide]
2840 | Cc1ccc2c(c1)c(NC(=O)c1ccc(C(F)(F)F)[nH]c1=O)cn2C [Compound 376, N-(1,5-dimethyl-1H-indol-3-yl)-2-oxo-6-(trifluoromethyl)-1,2-dihydropyridine-3-carboxamide]
7770 | Cc1ccc2[nH]cc(NC(=O)c3ccc(C(F)(F)F)[nH]c3=O)c2c1 [Compound 377, N-(5-methyl-1H-indol-3-yl)-2-oxo-6-(trifluoromethyl)-1,2-dihydropyridine-3-carboxamide]
760 | Cc1ccc2[nH]c(C)c(NC(=O)c3ccc(C(F)(F)F)[nH]c3=O)c2c1 [Compound 378, N-(2,5-dimethyl-1H-indol-3-yl)-2-oxo-6-(trifluoromethyl)-1,2-dihydropyridine-3-carboxamide]
4820 | Cc1ccc2c(NC(=O)c3ccc(C(F)(F)F)[nH]c3=O)cn(C)c2c1 [Compound 379, N-(1,6-dimethyl-1H-indol-3-yl)-2-oxo-6-(trifluoromethyl)-1,2-dihydropyridine-3-carboxamide]
> 10000 | Cc1ccc2c(NC(=O)c3ccc(C(F)(F)F)[nH]c3=O)coc2c1 [Compound 380, N-(6-methylbenzofuran-3-yl)-2-oxo-6-(trifluoromethyl)-1,2-dihydropyridine-3-carboxamide]
130 | CCCC1CC(NC(=O)c2ccc(C(F)(F)F)[nH]c2=O)c2ccc(C)cc2S1 (stereo not drawn) [Compound 381, N-(7-methyl-2-propylthiochroman-4-yl)-2-oxo-6-(trifluoromethyl)-1,2-dihydropyridine-3-carboxamide]
130 | CCCC1CC(NC(=O)c2ccc(C(F)(F)F)[nH]c2=O)c2cc(C)ccc2S1 (stereo not drawn) [Compound 382, N-(6-methyl-2-propylthiochroman-4-yl)-2-oxo-6-(trifluoromethyl)-1,2-dihydropyridine-3-carboxamide]
170 | Cc1ccc2c(c1)C(NC(=O)c1ccc(C(F)(F)F)[nH]c1=O)CC(C)S2 (stereo not drawn) [Compound 386, N-(2,6-dimethylthiochroman-4-yl)-2-oxo-6-(trifluoromethyl)-1,2-dihydropyridine-3-carboxamide]
580 | COc1ccc2c(c1)CC(C)CC2NC(=O)c1ccc(C(F)(F)F)[nH]c1=O (stereo not drawn) [Compound 389, N-(6-methoxy-3-methyl-1,2,3,4-tetrahydronaphthalen-1-yl)-2-oxo-6-(trifluoromethyl)-1,2-dihydropyridine-3-carboxamide]
50 | Cc1ccc2c(c1)CC(C)CC2NC(=O)c1ccc(C(F)(F)F)[nH]c1=O (stereo not drawn) [Compound 391, N-(3,6-dimethyl-1,2,3,4-tetrahydronaphthalen-1-yl)-2-oxo-6-(trifluoromethyl)-1,2-dihydropyridine-3-carboxamide]
80 | CCCC1Cc2cc(OC)ccc2C(NC(=O)c2ccc(C(F)(F)F)[nH]c2=O)C1 (stereo not drawn) [Compound 392, N-(6-methoxy-3-propyl-1,2,3,4-tetrahydronaphthalen-1-yl)-2-oxo-6-(trifluoromethyl)-1,2-dihydropyridine-3-carboxamide]
1230 | Cc1ccc2c(c1)C(NC(=O)c1ccc(C(F)(F)F)[nH]c1=O)CS2 (stereo not drawn) [Compound 393, N-(5-methyl-2,3-dihydrobenzo[b]thiophen-3-yl)-2-oxo-6-(trifluoromethyl)-1,2-dihydropyridine-3-carboxamide]
260 | Cc1ccc2c(c1)C(NC(=O)c1ccc(C(F)(F)F)[nH]c1=O)CC(C)O2 (stereo not drawn) [Compound 394, N-(2,6-dimethylchroman-4-yl)-2-oxo-6-(trifluoromethyl)-1,2-dihydropyridine-3-carboxamide]
